The text below walks through data of US10858316B2, “Small molecule inhibitors of the MCL-1 oncoprotein and uses thereof” (University of Maryland, Baltimore, priority 2015, dated 2020).

Broadly, the Ki is a dissociation constant, usually derived from enzyme kinetics or from competition with a known ligand.

A value given as a limit tells only on which side of the number the result lay.

In the first assay the target is Mcl-1 (Homo sapiens (Human), UniProt Q07820). In words: Fluorescence polarization competition assay (FPCA), Mcl-1 / FITC-Bak BH3 peptide. The assay is classed as binding. The following applies: FPC assay; read-out: Mcl-1 Ki. The source says: The tagged protein was initially purified from the crude cell lysate by immobilized metal affinity chromatography (IMAC) chromatography (GE Healthcare Life Sciences), and after dialysis to remove the imidazole the affinity tag was cleaved using PreScission Protease (GE Healthcare Life Sciences). A Sephacryl S-200 size exclusion column was used as a final purification step before the protein was concentrated with a 10,000 MWCO centifugal filter concentrator (Millipore).
Mcl-1, sequence (Q07820 172-327): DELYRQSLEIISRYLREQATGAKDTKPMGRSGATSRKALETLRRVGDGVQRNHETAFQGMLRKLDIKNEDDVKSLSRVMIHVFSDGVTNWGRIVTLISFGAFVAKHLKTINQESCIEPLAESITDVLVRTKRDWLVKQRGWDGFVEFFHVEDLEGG
Fluorescence polarization experiments were conducted using a BMG PHERAstar FS multimode microplate reader equipped with two PMTs for simultaneous measurements of the perpendicular and parallel fluorescence emission. The assays were performed in black polypropylene 384-well microplate (Costar) with a final volume of 20 microliter. […] Regression analysis was carried out using Origin (OriginLab, Northampton, Mass.) to fit the data to the Hill equation (1) to determine the initial binding affinity (KD) and the IC50 in the FPCA. For the fluorescence polarization competition titrations, an equation derived by Nikolovska-Coleska et al. was used to calculate the Ki from the IC50 data.
The target molecules were assayed for their abilities to disrupt the Mcl-1-Bak-BH3 PPI in a fluorescence polarization competition (FPC) assay with Mcl-1 and FITC-labeled Bak-BH3 peptide. Further details on the FPC assay can be found in the Supporting Information.
In general terms: Polarisation of emitted light reports the rotation of a fluorescent probe.
On to `O=C(O)C1Cc2ccccc2N(S(=O)(=O)c2ccc(Br)cc2)C1` (racemic) [±-8b], for which the Ki worked out at 117 µM.

Staying with this assay, now noted: FPCA.
For `COC(=O)C1Cc2ccccc2N(S(=O)(=O)c2ccc(Oc3cc(C)c(Cl)c(C)c3)cc2)C1` (racemic) [±-9], the “Binding affinity to Mcl-1 in vitro” value was “no appreciable affinity”.

Still in this assay, the particulars now being: FPCA with FITC-Bak; Ki from IC50 by Nikolovska-Coleska equation; listed as 8c; read-out: Mcl-1 Ki.
`CC(C)CN(c1ccc(C(=O)O)cc1)S(=O)(=O)c1ccc(-c2ccccc2)cc1` [LC-3-030 8c]: the Ki came out at 16.7 µM.

Still in this assay, the particulars now being: FPCA with FITC-Bak; Ki from IC50 by Nikolovska-Coleska equation; read-out: Mcl-1 Ki.
Turning to `O=C(O)c1ccc(N(Cc2ccccc2)S(=O)(=O)c2ccc3ccccc3c2)cc1O` [LC-4-113 13ca], the Ki was 11.4 ± 1.57 µM.

Take `O=C(O)c1cc(S(=O)(=O)NCc2ccccc2)c2ccccc2c1O` [Compound 3c, 4-(N-Benzylsulfamoyl)-1-hydroxy-2-naphthoic Acid]: the Ki came to 56.3 ± 2.1 µM.

Turning to `CN(C)S(=O)(=O)c1cc(C(=O)O)c(O)c2ccccc12` [Compound 3h, 4-(N,N-Dimethylsulfamoyl)-1-hydroxy-2-naphthoic Acid], the Ki was determined as 25.7 ± 4.86 µM.

With `O=C(O)c1cc(S(=O)(=O)Nc2ccccc2-c2ccccc2)c2ccccc2c1O` [Compound 3r, 4-(N-([1,1′-Biphenyl]-2-yl)sulfamoyl)-1-hydroxy-2-naphthoic Acid], the Ki stood at 8.5 ± 1.34 µM.

On to `CC(C)CN(c1ccc(C(=O)O)c(O)c1)S(=O)(=O)c1ccc(Oc2ccc(Cl)cc2Cl)cc1` [LC-4-111 13aj], for which the Ki worked out at 2.74 ± 0.258 µM.

With `O=C(O)c1cc(S(=O)(=O)Nc2ccc(Oc3ccc(Cl)cc3)cc2)c2ccccc2c1O` [Compound 3bh, 4-(N-(4-(4-Chlorophenoxy)phenyl)sulfamoyl)-1-hydroxy-2-naphthoic Acid], the Ki came out at 0.173 µM.

With `O=C(O)c1cc(S(=O)(=O)Nc2ccc(Oc3ccccc3)cc2)c2ccccc2c1O` [Compound 3bb, 1-Hydroxy-4-(N-(4-phenoxyphenyl)sulfamoyl)-2-naphthoic Acid], the Ki is 1.15 ± 0.28 µM.

On to `O=C(O)c1ccc(N(C2CCCC2)S(=O)(=O)c2ccc(-c3ccccc3)cc2)cc1O` [LC-4-082 13bb], for which the Ki amounted to 5.24 ± 0.694 µM.

`COc1cc(N(CC(C)C)S(=O)(=O)c2ccc(Oc3ccccc3)cc2)ccc1C(=O)O` [LC-5-106 19]: the Ki is 107 ± 31.1 µM.

For `CC(C)CN(c1ccc(C(=O)O)cc1)S(=O)(=O)c1ccc(-c2ccccc2)cc1` [LC-3-030 8c], the Ki is 16.7 ± 2.28 µM.

Consider `CC(C)c1ccc(NS(=O)(=O)c2cc(C(=O)O)c(O)c3ccccc23)cc1` [Compound 3y, 1-Hydroxy-4-(N-(4-isopropylphenyl)sulfamoyl)-2-naphthoic Acid], for which the Ki stood at 3.86 ± 1.53 µM.

As to `CC(C)CN(c1ccc(C(=O)O)cc1)S(=O)(=O)c1ccc2ccccc2c1` [LC-3-031 8b], the Ki was more than 500 µM.

For the compound `Cc1ccc(S(=O)(=O)N(CC(C)C)c2cccc(C(=O)O)c2)cc1` [4jc177-2 18ae], the Ki was 155 ± 14.7 µM.

`CC(C)CN(c1ccc(C#N)c(O)c1)S(=O)(=O)c1ccc(Oc2ccccc2)cc1` [LC-5-050 23]: the Ki is more than 500 µM.

As to `O=C(O)C1Cc2ccccc2N(S(=O)(=O)c2ccc3ccccc3c2)C1` (racemic) [±-8e], the Ki was 59 ± 6 µM.

For `Cc1cc(C)cc(Oc2ccc(S(=O)(=O)N(CC(C)C)c3ccc(C(=O)O)c(O)c3)cc2)c1` [LC-4-100 13ai], the Ki came out at 2.96 ± 0.286 µM.

Turning to `Cc1cc(Oc2ccc(S(=O)(=O)N(CC(C)C)c3ccc(C(=O)O)cc3)cc2)cc(C)c1Cl` [LC-3-035 8e], the Ki is 2.06 ± 0.118 µM.

Consider `CC(C)Oc1ccc(NS(=O)(=O)c2cc(C(=O)O)c(O)c3ccccc23)cc1` [Compound 3aa, 1-Hydroxy-4-(N-(4-isopropoxyphenyl)sulfamoyl)-2-naphthoic Acid], for which the Ki was found to be 54 ± 4.6 µM.

`O=C(O)c1cc(S(=O)(=O)Nc2ccccc2Br)c2ccccc2c1O` [Compound 3m, 4-(N-(2-bromophenyl)sulfamoyl)-1-hydroxy-2-naphthoic Acid]: the Ki was found to be 6.84 ± 2.23 µM.

With `O=C(O)c1cc(S(=O)(=O)N2CCN(Cc3ccccc3)CC2)c2ccccc2c1O` [Compound 3k, 4-((4-Benzylpiperazin-1-yl)sulfonyl)-1-hydroxy-2-naphthoic Acid], the Ki amounted to 3.41 ± 0.37 µM.

Consider `O=C(O)c1cc(S(=O)(=O)Nc2ccccc2)c2ccccc2c1O` [Compound 3l, 1-Hydroxy-4-(N-phenylsulfamoyl)-2-naphthoic acid], for which the inhibitory constant (Ki) came out at 106 ± 26 µM.

As for `O=C(O)C1Cc2ccccc2N(S(=O)(=O)c2ccc(Br)cc2)C1` (racemic) [±-8b], the Ki stood at 117 ± 19 µM.

Take `CC(C)CN(c1ccc(-c2cc(=O)[nH]o2)cc1)S(=O)(=O)c1ccc(Oc2ccccc2)cc1` [LC-5-069Toptop 26]: the Ki is more than 500 µM.

For the compound `COc1c(C(=O)O)cc(S(=O)(=O)N(CC(C)C)c2ccc(Br)cc2)c2ccccc12` [Compound 3cd, 4-(N-(4-Bromophenyl)-N-isobutylsulfamoyl)-1-methoxy-2-naphthoic Acid], the Ki turned out to be 23.4 ± 2.6 µM.

Regarding `CC(C)CN(c1ccc(C(=O)NO)c(O)c1)S(=O)(=O)c1ccc(Oc2ccccc2)cc1` [LC-5-061 25], the Ki is 71 ± 5.8 µM.

Consider `CC(C)CN(c1cccc(C(=O)O)c1)S(=O)(=O)c1ccc2ccccc2c1` [4jc177-3 18ab], for which the Ki worked out at 61.7 ± 4.73 µM.

For `CC(C)CN(c1ccc(C(=O)O)cc1)S(=O)(=O)c1ccccc1` [LC-3-029 8a], the Ki is more than 500 µM.

Turning to `O=C(O)c1ccc(N(C2CCCC2)S(=O)(=O)c2ccc3ccccc3c2)cc1O` [LC-4-083 13ba], the Ki was 24.7 ± 9.45 µM.

Take `COC(=O)C1Cc2ccccc2N(S(=O)(=O)c2ccc(Oc3cc(C)c(Cl)c(C)c3)cc2)C1` (racemic) [±-9]: the Ki was more than 500 µM.

On to `N#Cc1cccc(NS(=O)(=O)c2cc(C(=O)O)c(O)c3ccccc23)c1` [Compound 3ad, 4-(N-(3-Cyanophenyl)sulfamoyl)-1-hydroxy-2-naphthoic Acid], for which the Ki amounted to 26.9 ± 0.6 µM.

Regarding `Cc1cc(Oc2ccc(S(=O)(=O)N3CCCc4cc(C(=O)O)ccc43)cc2)cc(C)c1Cl` [LC-3-012, 1-((4-(4-chloro-3,5-dimethylphenoxy)phenyl)sulfonyl)-1,2,3,4-tetrahydroquinoline-6-carboxylic acid], the Ki came out at 0.332 µM.

Turning to `CC(C)CN(c1ccc(C(=O)O)cc1)S(=O)(=O)c1ccc(F)cc1` [LC-3-025 8d], the Ki was more than 500 µM.

As for `O=C(O)c1cc(S(=O)(=O)Nc2cccc(-c3ccccc3)c2)c2ccccc2c1O` [Compound 3s, 4-(N-([1,1′-Biphenyl]-3-yl)sulfamoyl)-1-hydroxy-2-naphthoic Acid], the Ki was found to be 1.88 ± 0.62 µM.

As to `CC(C)CN(c1cccc(C(=O)O)c1)S(=O)(=O)c1ccc(-c2ccccc2)cc1` [4jc177-4 18ac], the Ki was more than 500 µM.

Regarding `O=C(O)c1ccc2c(c1)CCCN2S(=O)(=O)c1ccc(F)cc1` [LC-3-010, 1-((4-fluorophenyl)sulfonyl)-1,2,3,4-tetrahydroquinoline-6-carboxylic acid], the Ki was more than 1000 µM.

Regarding `CC(C)CN(c1ccc(C(=O)O)c(O)c1)S(=O)(=O)c1ccc(F)cc1` [LC-5-025 13ad], the Ki was 99.4 ± 9.37 µM.

The assay is the same for the next values; noted with them: fluorescence polarization competition assay; read-out: Ki (μM) Mcl-1.
For the compound `CC(C)CN(c1ccc(C(=O)O)c(O)c1)S(=O)(=O)c1ccc(-c2ccccc2)cc1` [Compound 4jc117-4, 2-hydroxy-4-(N-isobutyl-[1,1′-biphenyl]-4-ylsulfonamido)benzoic acid], the Ki stood at 7.87 ± 0.263 µM.

Still in this assay, the particulars now being: read-out: Mcl-1 Ki.
Turning to `Cc1cc(Oc2ccc(S(=O)(=O)N3CC(C(=O)O)Cc4ccccc43)cc2)cc(C)c1Cl` (racemic) [SF-5-141, (±)-1-((4-(4-chloro-3,5-dimethylphenoxy)phenyl)sulfonyl)-1,2,3,4-tetrahydroquinoline-3-carboxylic acid], the Ki was determined as 0.286 µM.

As to `O=C(O)C1Cc2ccccc2N(S(=O)(=O)c2ccc(Br)cc2)C1` (racemic) [SF-5-135, (±)-1-((4-bromophenyl)sulfonyl)-1,2,3,4-tetrahydroquinoline-3-carboxylic acid], the Ki was more than 1000 µM.

Regarding `O=C(O)C1Cc2ccccc2N(S(=O)(=O)c2ccc3ccccc3c2)C1` (racemic) [SF-5-134, (±)-1-(naphthalen-2-ylsulfonyl)-1,2,3,4-tetrahydroquinoline-3-carboxylic acid], the Ki is 30 µM.

Still in this assay, the particulars now being: ΔG=−RTlnKi from experimental Ki.
Turning to `NS(=O)(=O)c1cc(C(=O)O)c(O)c2ccccc12` [3b; SF-5-294], the “Mcl-1 Exp ΔG” value was -5.46 kcal/mol.

With `O=C(O)c1cc(S(=O)(=O)Nc2ccc(Oc3ccc(Cl)cc3)cc2)c2ccccc2c1O` [3bh; SF-5-304], the “Mcl-1 Exp ΔG” value was -9.22 kcal/mol.

Turning to `O=C(O)c1cc(S(=O)(=O)Nc2cccc(Br)c2)c2ccccc2c1O` [3n; TA-1-020], the “Mcl-1 Exp ΔG” value is -7.16 kcal/mol.

On to `O=C(O)c1cc(S(=O)(=O)Nc2cccc(-c3ccccc3)c2)c2ccccc2c1O` [3s; LC-3-192], for which the “Mcl-1 Exp ΔG” value is -7.81 kcal/mol.

Turning to `Cc1ccc(NS(=O)(=O)c2cc(C(=O)O)c(O)c3ccccc23)cc1` [3x; 5JC74-1], the “Mcl-1 Exp ΔG” value was -6.09 kcal/mol.

With `O=C(O)c1cc(S(=O)(=O)N2CCCCC2)c2ccccc2c1O` [3i; SF-5-263], the “Mcl-1 Exp ΔG” value was -7.54 kcal/mol.

For the compound `O=C(O)c1cc(S(=O)(=O)N2CCN(Cc3ccccc3)CC2)c2ccccc2c1O` [3k; SF-5-307], the “Mcl-1 Exp ΔG” value is -7.45 kcal/mol.

Regarding `O=C(O)c1cc(S(=O)(=O)Nc2ccccc2)c2ccccc2c1O` [3l; SF-5-311], the “Mcl-1 Exp ΔG” value was -5.42 kcal/mol.

Take `N#Cc1cccc(NS(=O)(=O)c2cc(C(=O)O)c(O)c3ccccc23)c1` [3ad; 5JC75-2]: the “Mcl-1 Exp ΔG” value was -6.23 kcal/mol.

Take `COc1c(C(=O)O)cc(S(=O)(=O)N(CC(C)C)c2ccc(Br)cc2)c2ccccc12` [Compound 3cd, 4-(N-(4-Bromophenyl)-N-isobutylsulfamoyl)-1-methoxy-2-naphthoic Acid]: the “Mcl-1 Exp ΔG” value was -6.31 kcal/mol.

On to `O=C(O)c1cc(S(=O)(=O)NCc2ccccc2)c2ccccc2c1O` [3c; SF-5-311], for which the “Mcl-1 Exp ΔG” value is -5.79 kcal/mol.
